For twelve compounds, inhibition and inhibition in vivo results are on record in patent US5225436A, “Aryl substituted naphthalene derivatives” (Schering Corporation, priority 1991, dated 1993).

As a reminder, the inhibition is the change of the read-out against control, counted positive when it falls.

Test [1] concerns SRS-A / leukotriene release from antigen-challenged, sensitized guinea pig lung. The test is described as follows: Inhibition of SRS-A (leukotriene) release from antigen-challenged, sensitized guinea pig lung. The following applies: Cavia porcellus; for inhibition: Dose 30 μm (μM). Also on record: inhibition: dose or concentration left out as unconfirmed. The test is classed as cell-based. The text has this:
The anti-allergy method of this invention is identified by tests which measure a compound's inhibition of leukotriene release in sensitized guinea pigs. Sensitized guinea pigs are killed by a blow to the head and the lungs removed and cleaned of visible connective tissue, trachea and large blood vessels. The lungs from individual animals are sliced into fragments approximately 1 mm in thickness using a McIlwain tissue chopper and then washed with oxygenated Tyrode's buffer. Weighed aliquots (approximately 400 mg wet weight) of lung are transferred into vials containing 2 ml of fresh Tyrode's solution (containing 10 mM cysteine) and incubated in the presence or absence of test compound for 12 min at 37° C. The tissues are then challenged with 20 μg ovalbumin/ml (final concentration) and incubated for 15 min. To measure leukotriene release, an aliquot of supernatant fluid is extracted with 4 volumes of 100% ethanol. After removal of the precipitated protein, the clear fluid is dried under a stream of N2 gas. The leukotriene content is measured by a radioimmunoassay using [^3 H]LTC4 and antiserum obtained from New England Nuclear. The cross-reactivity of the antiserum for LTD4 is 55%. Percent inhibition of lekotriene release is calculated by comparing for each lung the release in the presence of the test compound to that in the absence of test compound. Representative compounds of the invention at a relative dose of 50 μM of tissue are found to inhibit leukotriene release in the test procedure as indicated below in Table 1: […]

The subject of test [2] is anaphylactic bronchospasm (antigen-induced SRS-A mediated bronchoconstriction). The test can be described thus: Inhibition of anaphylactic bronchospasm in sensitized guinea pigs. To be noted: Cavia porcellus, iv, 0.25 h; for inhibition in vivo at 10 mg/kg: Dose 10 mpk, read-out: % Inhibition of anaphylactic bronchospasm; for inhibition in vivo at 3 mg/kg: Dose 3 mpk. The test is classed as in vivo, guinea pig. The protocol: The anti-allergy method of this invention is identified by tests which measure a compound's inhibition of anaphylactic bronchospams-in sensitized guinea pigs having antigen-induced SRS-A mediated bronchoconstriction. Allergic bronchospams was measured in actively sensitized guinea pigs by a modification of the procedure of Konzett and Rossler, Arch. Exptl. Pathol. Pharmakol., 194, pp. 71-74 (1940). Male Hartley guinea pigs were sensitized with 5 mg ovalbumin injected ip and 5 mg injected sc in 1 ml saline on day 1 and 5 mg ovalbumin injected ip on day 4. The sensitized animals were used 3-4 weeks later. To measure anaphylactic bronchospasm, sensitized guinea pigs were fasted overnight and the following morning were anesthetized with 0.9 ml/kp ip dialurethane. The trachea and jugular vein were cannulated and the animals were ventilated by a Harvard rodent respirator. A side arm to the tracheal cannula was connected to a Harvard pressure transducer to obtain a continuous measure of intratracheal pressure. An increase in intratracheal pressure was taken as a measure of bronchoconstriction. Each guinea pig was injected iv with 1 mg/kg propranolol, 5 mg/kg indomethacin and 2 mg/kg mepyramine given together in a volume of […]. Fifteen minutes later, the animals were challenged with antigen (0.5 percent ovalbumin) delivered as an aerosol generated from a DeVilbiss Model 65 ultrasonic nebulizer and delivered through the tracheal cannula for 30 seconds. Bronchoconstriction was measured as the peak increase in intratracheal pressure occurring within 15 minutes after antigen challenge.

Test [3] addresses T1, 5-lipoxygenase (Mus musculus, UniProt P48999).
T1 construct: The IL-3-dependent murine mast cell clone, MC-9, was used to test the effects; endogenous in cells; host or cells: MC-9 (IL-3-dependent murine mast cell clone)
T1 sequence (P48999 1-674): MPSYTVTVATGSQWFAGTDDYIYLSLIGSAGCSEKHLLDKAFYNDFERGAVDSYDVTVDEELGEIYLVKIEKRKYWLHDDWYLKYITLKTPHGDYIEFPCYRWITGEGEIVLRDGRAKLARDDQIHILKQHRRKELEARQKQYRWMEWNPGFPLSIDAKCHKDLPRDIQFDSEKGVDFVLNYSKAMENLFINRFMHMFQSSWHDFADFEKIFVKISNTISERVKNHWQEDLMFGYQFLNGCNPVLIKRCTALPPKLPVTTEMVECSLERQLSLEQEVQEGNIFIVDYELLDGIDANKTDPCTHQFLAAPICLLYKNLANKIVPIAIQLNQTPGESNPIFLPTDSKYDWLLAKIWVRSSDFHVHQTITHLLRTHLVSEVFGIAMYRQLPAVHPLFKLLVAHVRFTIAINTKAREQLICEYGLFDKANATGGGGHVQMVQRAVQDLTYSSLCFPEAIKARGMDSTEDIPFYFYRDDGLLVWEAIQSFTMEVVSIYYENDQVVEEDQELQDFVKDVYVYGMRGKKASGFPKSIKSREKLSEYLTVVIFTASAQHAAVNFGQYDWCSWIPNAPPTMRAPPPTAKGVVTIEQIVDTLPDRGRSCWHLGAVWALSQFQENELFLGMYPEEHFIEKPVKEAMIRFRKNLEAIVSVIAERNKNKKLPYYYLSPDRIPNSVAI
The test can be described thus: 5-Lipoxygenase assay (murine mast cell clone MC-9). The test is classed as cell-based. The following applies: MC9, 5 min, MC-9 cell. The protocol: The IL-3-dependent murine mast cell clone, MC-9, was used to test the effects of representative compounds of the invention on lipoxygenase activity. The MC-9 cell line was grown in suspension culture (0.4 to 1.2×10^6 cells/ml) in RPMI 1640 medium (Gibco) with 10% fetal bovine serum (Hyclone) and 2-5% conconavalin-A conditioned supernatant (Musch et. al., (1985) Prostagandins 29, 405-4307. Cells were harvested, washed twice by centrifugation, and resuspended in a Ca^++ -free HEPES buffer (25 mM HEPES, 125 mM NaCl, 2.5 mM KCl 0.7 mM MgCl2, 0.5 mM EGTA and 10 mM glucose at pH 7.4).
MC-9 cells (0.39 ml at 7.5×10^6 cells/ml) were preincubated with dimethylsulfoxide (DMSO) vehicle with or without test compound (1 ul) for 4 minutes then incubated for 5 minutes with [^14 C] arachidonic acid (Amersham, 59 Ci/mole) at a 9 uM final concentration, and A23187 (Calbiochem) at a 1 uM final concentration was added in 10 ul of water:ethanol (9:1). The reaction was stopped by addition of methanol (0.4 ml), and cellular debris was removed by centrifugation. Aliquots (250 ul) of the incubations were run on a Waters two pump HPLC system fitted with a Waters C18, 10 u 8×100 mm u-Bondapak radial compression column and C18 "Guard Pak". The column was initially eluted at 3 ml/min with water:methanol:acetic acid (67:33:0.08) containing 1 mM EDTA adjusted to pH 6.0 with ammonium hydroxide (Pump A). At 4 minutes, a linear gradient to reach 100% methanol (Pump B) at 9 minutes was established. Between 13 and 14 minutes, methanol was exchanged for the initial eluting solvent and by 19 minutes the column had been reequilibrated for the next sample. The effluent was analyzed by a continuous flow radioactivity monitor (model ROMONA-D) interfaced with a Hewlett Packard Lab Automation System for quantitation of radioactive products. These were predominantly leukotriene C4 (LTC4) which eluted at 6 minutes, and 5-hydroxyeicosatetraenoic acid (5-HETE) which eluted at 11 minutes (Musch et. al., supra).

Test [4] deals with T2, 5-lipoxygenase (Homo sapiens, UniProt P09917).
T2 construct: Human polymorphonuclear leukocytes (neutrophils) were obtained from normal healthy volunteers; endogenous in cells; host or cells: human blood neutrophils from healthy volunteers
T2 sequence (P09917 1-674): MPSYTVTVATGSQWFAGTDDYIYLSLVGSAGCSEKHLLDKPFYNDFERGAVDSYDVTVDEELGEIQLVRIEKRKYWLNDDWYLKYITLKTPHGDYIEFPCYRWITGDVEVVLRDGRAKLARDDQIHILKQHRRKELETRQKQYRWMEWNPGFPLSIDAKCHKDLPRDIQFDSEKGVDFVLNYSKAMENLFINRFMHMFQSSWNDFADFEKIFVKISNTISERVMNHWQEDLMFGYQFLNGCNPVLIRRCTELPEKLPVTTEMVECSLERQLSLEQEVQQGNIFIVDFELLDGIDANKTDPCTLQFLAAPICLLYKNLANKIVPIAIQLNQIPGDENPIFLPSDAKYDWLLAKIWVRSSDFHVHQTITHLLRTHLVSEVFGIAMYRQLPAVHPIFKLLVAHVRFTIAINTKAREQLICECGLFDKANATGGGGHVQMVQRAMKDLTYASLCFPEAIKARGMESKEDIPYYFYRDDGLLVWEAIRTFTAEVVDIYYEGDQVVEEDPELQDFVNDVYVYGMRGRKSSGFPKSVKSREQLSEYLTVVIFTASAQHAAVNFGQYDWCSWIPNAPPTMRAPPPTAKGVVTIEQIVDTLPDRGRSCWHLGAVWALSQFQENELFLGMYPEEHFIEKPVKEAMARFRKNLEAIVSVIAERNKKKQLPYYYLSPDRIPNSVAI
The test is described as follows: 5-Lipoxygenase assay with human neutrophils. The test is classed as cell-based. The following applies: 5 min, Human PMN, dose 15 μm (μM).

SMILES strings stand for the structures. Where two headings read alike, the source gives them in different places.

`COc1cc(OC)c2c(c1)C(C)(C)C(c1ccc(OC)c(OC)c1)=CC2=O`: the results for the inhibition at 50 µM (in test [1]; on 5-lipoxygenase [3] (read-out: % Inhibition 5-HETE); on 5-lipoxygenase [3] (read-out: % Inhibition LTC4)) were 55%, 95% and 100%, respectively. In test [2], the inhibition in vivo at 10 mg/kg was determined as 36%. In addition, the inhibition at 5 µM turned out to be 9% on 5-lipoxygenase [3] (read-out: % Inhibition 5-HETE) and 17% on 5-lipoxygenase [3] (read-out: % Inhibition LTC4).
In the case of `COc1cc(OC)c2c(c1)C(C)(C)C(c1ccc(OC)c(OC)c1)CC2=NO` (stereo not drawn), the inhibition at 10 µM in test [1] (Dose 10 μm) came to 35%. For the same compound, the inhibition at 50 µM in test [1] turned out to be 75%. The inhibition in vivo at 10 mg/kg in test [2] is 50%. Moreover, the inhibition at 1 µM at 5-lipoxygenase [3] (read-out: % Inhibition 5-HETE) came out at 28%; at 5-lipoxygenase [3] (read-out: % Inhibition LTC4) it was 26%. The figures for the inhibition at 5 µM at 5-lipoxygenase [3] (read-out: % Inhibition 5-HETE) and at 5-lipoxygenase [3] (read-out: % Inhibition LTC4) were 100% and 65%, respectively.
For `CC(=O)Oc1cc(OC(C)=O)c2c(c1)C(C)(C)C(c1ccc(OC(C)=O)c(OC(C)=O)c1)=CC2=O` [3-(3,4-diacetyloxyphenyl)-6,8-diacetyloxy-4,4-dimethyl-1(4H)-naphthalenone], the inhibition at 50 µM in test [1] was determined as 48%. In addition, in test [2], the inhibition in vivo at 10 mg/kg was determined as 7%. For the same compound, the results for the inhibition at 5 µM on 5-lipoxygenase [3] (read-out: % Inhibition 5-HETE) and at 5-lipoxygenase [3] (read-out: % Inhibition LTC4) were 53% and 43%, respectively.
With `COc1cc(OC)c2c(c1)C(C)(C)C(c1ccc(OC)c(OC)c1)CC(=NO)C2` (stereo not drawn) [drawing 89 [X=CH2; R3/R4=NOH; P=OCH3]], in test [1], the inhibition turned out to be 46%. Also, the inhibition in vivo at 3 mg/kg in test [2] was 0%. Further, the inhibition at 15 µM at 5-lipoxygenase [4] (read-out: % Inhibition 5-HETE) worked out at 87%.
Turning to `COc1cc(OC)c2c(c1)C(C)(C)C(c1ccc(OC)c(OC)c1)CC(=O)C2` (stereo not drawn) [drawing 89 [X=CH2; R3/R4=O; P=OCH3]], the inhibition in test [1] stood at 47%. Also, the inhibition in vivo at 10 mg/kg in test [2] was determined as 0%. Besides, the inhibition at 15 µM stood at 87% at 5-lipoxygenase [4] (read-out: % Inhibition 5-HETE) and 97% on 5-lipoxygenase [4] (read-out: % Inhibition LTB).
For `COc1ccc2c(c1)C(C)(C)C(c1ccc(OC)c(OC)c1)CCN2` (stereo not drawn) [drawing 89 [X=NH; R3/R4=H,H; P=H]], the inhibition in test [1] was 57%. Further, the inhibition in vivo at 10 mg/kg in test [2] stood at 42%. For the same compound, at 5-lipoxygenase [4] (read-out: % Inhibition 5-HETE), the inhibition at 15 µM turned out to be 73%.
Consider `COc1cc(OC)c2c(c1)C(C)(C)C(c1ccc(OC)c(OC)c1)CCN2` (stereo not drawn) [drawing 89 [X=NH; R3/R4=H,H; P=OCH3]], for which the inhibition in test [1] worked out at 45%. The inhibition in vivo at 10 mg/kg in test [2] came out at 34%. Further, the figures for the inhibition at 15 µM on 5-lipoxygenase [4] (read-out: % Inhibition 5-HETE) and at 5-lipoxygenase [4] (read-out: % Inhibition LTB) were 39% and 63%, respectively.
With `COc1cc(OC)c2c(c1)C(C)(C)C(c1ccc(OC)c(OC)c1)CC(=O)N2` (stereo not drawn) [drawing 89 [X=NH; R3/R4=O; P=OCH3]], in test [1], the inhibition came to 65%. Moreover, in test [2], the inhibition in vivo at 3 mg/kg turned out to be 20%. In addition, the inhibition at 15 µM at 5-lipoxygenase [4] (read-out: % Inhibition 5-HETE) amounted to 0%; at 5-lipoxygenase [4] (read-out: % Inhibition LTB), 2%.
Take `COc1cc(OC)c2c(c1)C(C)(C)C(c1ccc(OC)c(OC)c1)CC(=O)O2` (stereo not drawn) [drawing 89 [X=O; R3/R4=O; P=OCH3]]: the inhibition in test [1] stood at 59%. Further, the inhibition in vivo at 10 mg/kg in test [2] worked out at 4%. Also, the inhibition at 15 µM on 5-lipoxygenase [4] (read-out: % Inhibition 5-HETE) was found to be 9%.
As for `COc1cc(OC)c2c(c1)C(C)(C)C(c1ccc(OC)c(OC)c1)CCC2=NO` (stereo not drawn) [drawing 90 [X=NOH; W=H; J=H]], in test [1], the inhibition was found to be 58%. Besides, the inhibition in vivo at 10 mg/kg in test [2] is 10%. Further, the inhibition at 15 µM on 5-lipoxygenase [4] (read-out: % Inhibition 5-HETE) was 2%.
The matching figures for `COc1cc(OC)c2c(c1)C(C)(C)C(c1ccc(OC)c(OC)c1)CC(C)C2=O` (stereo not drawn) [drawing 90 [X=O; W=H; J=CH3]]: 61%, 53% and 28%.
As for `COc1cc(OC)c2c(c1)C(C)(C)C(c1ccc(OC)c(OC)c1)CCC2=O` (stereo not drawn) [drawing 90 [X=O; W=H; J=H]], in test [1], the inhibition is 78%. Besides, in test [2], the inhibition in vivo at 10 mg/kg amounted to 56%. Moreover, the inhibition at 15 µM came to 51% on 5-lipoxygenase [4] (read-out: % Inhibition 5-HETE) and 45% on 5-lipoxygenase [4] (read-out: % Inhibition LTB).
